In PubChem BioAssay AID248 (DTP/NCI, 2004):
Toxic doses and inconclusive results are not listed. Rule as the data show it: active = T/C of 150% or more; inactive = T/C below 125%.

Test system: L1210 leukemia ip in BDF1 mice, survival T/C
Test: NCI In Vivo Anticancer Drug Screen. Data for tumor model L1210 Leukemia (intraperitoneal) in B6D2F1 (BDF1) mice
Details: endpoint: mean survival time, higher = longer survival
In short: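 Survival endpoint. Drug-treated group vs vehicle group, expressed as T divided by C. Tumor passaged by transplantation.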

[1] = dose: 50.0 mg/kg/injection, schedule: Q01DX001 (ip), vehicle: carboxymethylcellulose (CMC)
[2] = dose: 100.0 mg/kg/injection, schedule: Q01DX001 (ip), vehicle: carboxymethylcellulose (CMC)
[3] = dose: 200.0 mg/kg/injection, schedule: Q01DX001 (ip), vehicle: carboxymethylcellulose (CMC)
[4] = dose: 400.0 mg/kg/injection, schedule: Q01DX001 (ip), vehicle: carboxymethylcellulose (CMC)
[5] = dose: 100.0 mg/kg/injection, schedule: Q01DX001 (ip), vehicle: saline
[6] = dose: 200.0 mg/kg/injection, schedule: Q01DX001 (ip), vehicle: saline
[7] = dose: 100.0 mg/kg/injection, schedule: Q04DX003 (ip), vehicle: Klucel (hydroxypropylcellulose) (HPC)
[8] = dose: 200.0 mg/kg/injection, schedule: Q04DX003 (ip), vehicle: Klucel (hydroxypropylcellulose) (HPC)
[9] = dose: 100.0 mg/kg/injection, schedule: Q01DX009 (ip), vehicle: saline with Tween-80
[10] = dose: 200.0 mg/kg/injection, schedule: Q01DX009 (ip), vehicle: saline with Tween-80

Measured: T/C

CCOc1ccc(N=Nc2c(O)n(-c3ccccc3C)c(=S)n(-c3ccccc3OC)c2=O)cc1
inactive: dose: 75.0 mg/kg/injection, schedule: Q01DX003 (ip), vehicle: Klucel (hydroxypropylcellulose) (HPC) 91 % of control | dose: 150.0 mg/kg/injection, schedule: Q01DX003 (ip), vehicle: Klucel (hydroxypropylcellulose) (HPC) 94 % of control | dose: 300.0 mg/kg/injection, schedule: Q01DX003 (ip), vehicle: Klucel (hydroxypropylcellulose) (HPC) 91 % of control

C/C(=N/O)c1ccccc1NO
inactive: dose: 25.0 mg/kg/injection, schedule: Q01DX001 (ip), vehicle: carboxymethylcellulose (CMC) 89 % of control | [1] 94 % of control | [2] 96 % of control | [3] 91 % of control | [4] 86 % of control

Cc1cc(C)c(S(=O)(=O)N=[N+]=[N-])c(C)c1
inactive: [5] 101 % of control | [6] 103 % of control | dose: 400.0 mg/kg/injection, schedule: Q01DX001 (ip), vehicle: saline 97 % of control

O=C(Cl)/C=C/c1c(Cl)cccc1Cl
inactive: dose: 75.0 mg/kg/injection, schedule: Q01DX009 (ip), vehicle: Klucel (hydroxypropylcellulose) (HPC) 102 % of control | [7] 103 % of control | dose: 150.0 mg/kg/injection, schedule: Q01DX009 (ip), vehicle: Klucel (hydroxypropylcellulose) (HPC) 100 % of control | [8] 92 % of control | dose: 300.0 mg/kg/injection, schedule: Q01DX009 (ip), vehicle: Klucel (hydroxypropylcellulose) (HPC) 93 % of control

CC(=O)Nc1[nH]ncc1C(N)=O
inactive: dose: 50.0 mg/kg/injection, schedule: Q01DX001 (ip), vehicle: Klucel (hydroxypropylcellulose) (HPC) 100 % of control | dose: 100.0 mg/kg/injection, schedule: Q01DX001 (ip), vehicle: Klucel (hydroxypropylcellulose) (HPC) 100 % of control | dose: 200.0 mg/kg/injection, schedule: Q01DX001 (ip), vehicle: Klucel (hydroxypropylcellulose) (HPC) 98 % of control

N#CC1(Nc2cccc(C(F)(F)F)c2)CCCCC1
inactive: dose: 100.0 mg/kg/injection, schedule: Q01DX009 (ip), vehicle: Klucel (hydroxypropylcellulose) (HPC) 94 % of control | dose: 200.0 mg/kg/injection, schedule: Q01DX009 (ip), vehicle: Klucel (hydroxypropylcellulose) (HPC) 105 % of control | dose: 400.0 mg/kg/injection, schedule: Q01DX009 (ip), vehicle: Klucel (hydroxypropylcellulose) (HPC) 100 % of control

N#C/C(=C\c1cccn1Cc1ccc2ccccc2c1)C(N)=O
inactive: dose: 100.0 mg/kg/injection, schedule: Q04DX002 (ip), vehicle: saline with Tween-80 104 % of control | dose: 200.0 mg/kg/injection, schedule: Q04DX002 (ip), vehicle: saline with Tween-80 96 % of control | dose: 400.0 mg/kg/injection, schedule: Q04DX002 (ip), vehicle: saline with Tween-80 93 % of control

O=C1CN(CCN2CC(=O)N(c3ccccc3)C2=S)C(=S)N1Cc1ccccc1
inactive: dose: 50.0 mg/kg/injection, schedule: Q01DX009 (ip), vehicle: saline with Tween-80 96 % of control | [9] 90 % of control | [10] 94 % of control

O=c1[nH]c(Nc2ccccc2)c([N+](=O)[O-])c(=O)[nH]1
inactive: dose: 9.0 mg/kg/injection, schedule: Q01DX001 (ip), vehicle: Klucel (hydroxypropylcellulose) (HPC) 98 % of control | dose: 18.0 mg/kg/injection, schedule: Q01DX001 (ip), vehicle: Klucel (hydroxypropylcellulose) (HPC) 110 % of control | dose: 37.0 mg/kg/injection, schedule: Q01DX001 (ip), vehicle: Klucel (hydroxypropylcellulose) (HPC) 101 % of control | dose: 75.0 mg/kg/injection, schedule: Q01DX001 (ip), vehicle: Klucel (hydroxypropylcellulose) (HPC) 104 % of control

COc1ccc(C)cc1NC(=O)Nc1cc([N+](=O)[O-])ccc1F
inactive: dose: 100.0 mg/kg/injection, schedule: Q04DX002 (ip), vehicle: Klucel (hydroxypropylcellulose) (HPC) 87 % of control | dose: 200.0 mg/kg/injection, schedule: Q04DX002 (ip), vehicle: Klucel (hydroxypropylcellulose) (HPC) 104 % of control | dose: 400.0 mg/kg/injection, schedule: Q04DX002 (ip), vehicle: Klucel (hydroxypropylcellulose) (HPC) 108 % of control

CC(C)(C)c1cc(C[P+](c2ccc(Cl)cc2)(c2ccc(Cl)cc2)c2ccc(Cl)cc2)cc(C(C)(C)C)c1O
inactive: dose: 12.5 mg/kg/injection, schedule: Q01DX009 (ip), vehicle: Klucel (hydroxypropylcellulose) (HPC) 97 % of control | dose: 25.0 mg/kg/injection, schedule: Q01DX009 (ip), vehicle: Klucel (hydroxypropylcellulose) (HPC) 88 % of control | [7] 98 % of control | [8] 100 % of control

Nc1nc(N)c(N=O)c(Nc2ccc(Cl)c(Cl)c2)n1
inactive: dose: 3.12 mg/kg/injection, schedule: Q01DX Z (ip), vehicle: carboxymethylcellulose (CMC) 117 % of control | dose: 6.25 mg/kg/injection, schedule: Q01DX Z (ip), vehicle: carboxymethylcellulose (CMC) 104 % of control | dose: 12.5 mg/kg/injection, schedule: Q01DX Z (ip), vehicle: carboxymethylcellulose (CMC) 106 % of control | dose: 25.0 mg/kg/injection, schedule: Q01DX Z (ip), vehicle: carboxymethylcellulose (CMC) 109 % of control | dose: 100.0 mg/kg/injection, schedule: Q01DX Z (ip), vehicle: carboxymethylcellulose (CMC) 89 % of control | dose: 400.0 mg/kg/injection, schedule: Q01DX Z (ip), vehicle: carboxymethylcellulose (CMC) 86 % of control

O=C(O)CNC(=O)C(Br)Cc1ccccc1 (stereo not drawn)
inactive: [9] 96 % of control | [10] 89 % of control | dose: 400.0 mg/kg/injection, schedule: Q01DX009 (ip), vehicle: saline with Tween-80 89 % of control

COc1ccccc1/C=C(\SS/C(=C/c1ccccc1OC)C(=O)O)C(=O)O
inactive: [5] 120 % of control | [6] 91 % of control

C=C1CC2(c3ccccc3)C(=O)C1(c1ccccc1)C(c1ccccc1)=C2c1ccccc1 (stereo not drawn)
inactive: [1] 96 % of control | [3] 90 % of control | [4] 89 % of control

O=C(Nc1cccc2ccccc12)N1CCCc2ccccc21
inactive: [1] 88 % of control | [2] 98 % of control | [3] 95 % of control | [4] 90 % of control

Cc1ccc2c(c1)N(CCCN1CC[N+](C)(C)CC1)c1ccccc1S2
inactive: dose: 10.0 mg/kg/injection, schedule: Q01DX001 (ip), vehicle: saline 101 % of control | dose: 20.0 mg/kg/injection, schedule: Q01DX001 (ip), vehicle: saline 95 % of control | dose: 40.0 mg/kg/injection, schedule: Q01DX001 (ip), vehicle: saline 98 % of control | dose: 80.0 mg/kg/injection, schedule: Q01DX001 (ip), vehicle: saline 98 % of control

[Cl][Pt+2][Cl].[NH-]c1ccc([N+](=O)[O-])cc1.[NH-]c1ccc([N+](=O)[O-])cc1
inactive: dose: 100.0 mg/kg/injection, schedule: Q04DX003 (ip), vehicle: saline 102 % of control | dose: 200.0 mg/kg/injection, schedule: Q04DX003 (ip), vehicle: saline 113 % of control
